Patent publication US10112974B2, “Method for the production of 18F-labeled active esters and their application exemplified by the preparation of a PSMA-specific PET-tracer” (Max-Planck-Gesellschaft zur Foerderung der Wissenschaften …, priority 2014, dated 2018)

Tests used:
[1] = Storage and solution stability of iodonium iodide 22; format: physicochemical
[2] = system: LNCaP-C4-2 prostate tumor cells
Description: Five 8-week-old male C.B-Igh-1b/IcrTac-Prkdcscid mice (Taconic) were injected subcutaneously in the neck region with 4×10^6 LNCaP-C4-2 prostate tumor cells. […] The first PET measurement was immediately followed by a CT scan during which the animal was left in the same position. Both tracers were injected i.v. through the lateral tail vein ([^18F]1-10: 21-32 MBq; [^68Ga]HBED-CC: 19-33 MBq, on two consecutive days). Emission data collection started 60 min after injection and lasted 45 min. Image reconstruction was performed using Fourier rebinning and an ordered subset expectation maximization (3D-OSEM) procedure, yielding images with voxel sizes of 0.78×0.78×0.80 mm. Image analysis was performed with VINCI 4.0 (MPI for Metabolism Research, Cologne, Germany). Tracer uptake in the tumor as well as liver, kidney, and background was determined using volumes of interest (VOIs) covering the respective structure. Significant differences were assessed using two-way repeated measures ANOVA with factors “structure” and “tracer”, followed by Holm-Sidak post hoc comparison. Tumor sizes were measured by drawing accurate tumor VOIs in the CT images, and extracting VOI volume. Tracer uptake was correlated tumor size using the Pearson correlation test.

[3] = system: PSMA positive prostate tumor xenografts; details: PSMA positive prostate tumor xenografts in mice; clear delineation; cited from earlier work

Row | stability in solution ([1]; in solution, especially at elevated temperatures, in DMF or DMSO already at ambient temperature) | storage stability ([1]; stored at 4° C. under argon) [months] | uptake in the kidney ([2]; PET 60 min after i.v. injection, kidney VOI) [% ID/g] | liver uptake ([2]; PET 60 min after i.v. injection, liver VOI) [% ID/g] | kidney uptake compared to [^68Ga]HBED-CC (50) ([2]; PSMA^+ PCa mice model) | SMILES | tumor tracer uptake ([2]; PET 60 min after i.v. injection, 45 min emission, LNCaP-C4-2 xenograft mice, tumor VOI) [% ID/g] | Signal-to-noise ratio (tumor versus background) ([2]; PET 60 min after i.v. injection, LNCaP-C4-2 xenograft mice) | imaging characteristics compared to [^68Ga]HBED-CC (50) ([2]; PSMA^+ PCa mice model) | tumor to background ratio [3]
1 | unstable | ≥ 4 | – | – | – | COc1ccc([I+]c2ccc(C(=O)Oc3c(F)c(F)cc(F)c3F)cc2)cc1.[I-] [Compound 22, (4-Methoxyphenyl) [4-(2,3,5,6-tetrafluorophenoxycarbonyl)phenyl]iodonium iodide] | – | – | – | –
2 | – | – | 3.0±1.9 | 1.1±0.5 | much lower | O=C(O)CCC(NC(=O)NC(CCCCNC(=O)c1ccc([18F])nc1)C(=O)O)C(=O)O (stereo not drawn) [[^18F]1-10, 2-(3-{1-carboxy-5-[(6-[^18F]fluoro-pyridine-3-carbonyl)-amino]-pentyl}-ureido)-pentanedioic acid] | 1.4±1.7 | 5.9±4.2 | nearly identical | excellent
